The source of these data is patent US4851411A, “5-monoaryl as.-triazin-3-ones substituted in 2-position, and their use as medicaments” (Pierre Fabre Medicament, priority 1986, dated 1989).

The series is described as follows: Solubility. Type of series: physicochemical.

SMILES strings stand for the structures.

As to `COc1ccc(-c2cnn(C(C(=O)c3ccccc3)c3ccccc3)c(=O)n2)cc1` (stereo not shown) [Example 34, 2-N-desyl 3-oxo 5-p-methoxyphenyl as.-triazine], the solubility in ether result is on record as “poorly soluble” and the solubility in water result is recorded as “insoluble”. Under “in the hot”, the “solubility in alcohols in the hot” value is recorded as “Soluble”. Also, for the setting “chloroform”, the solubility in chloroform result is “rather soluble”.
On to `COc1ccc(C(=O)Cn2ncc(-c3ccc(OC)cc3)nc2=O)cc1` [Example 40, 2-p.methoxyphenacyl 3-oxo 5-p.methoxyphenyl as triazine], for which the “solubility in acetic acid” value is recorded as “Insoluble”, the solubility in alcohols entry is recorded as “Insoluble” and the solubility in water entry was “Insoluble”.
For the compound `CC(=O)Cn1ncc(-c2ccccc2)nc1=O` [Example 7, 2-acetonyl 3-oxo 5-phenyl as.-triazine], the solubility in ether result is “insoluble” and the solubility in water result is recorded as “insoluble”. Besides, under “chloroform”, the solubility in chloroform result is given as “Soluble”. For the same compound, the “solubility in methylene chloride” value (methylene chloride) is recorded as “Soluble”.
For `COc1ccc(-c2cnn(CCCCCN3CCN(c4cccc(Cl)c4)CC3)c(=O)n2)cc1` [Example 15, 2-N (ε-pentyl m-chlorophenyl piperazine) 3-oxo 5-p-methoxyphenyl as.-triazine], the solubility in ether entry is recorded as “insoluble” and the solubility in water result was “insoluble”. Besides, the solubility in chloroform result (chloroform) is reported as “Soluble”. In addition, under “methylene chloride”, the “solubility in methylene chloride” value is listed as “Soluble”.
In the case of `CCOC(=O)CC(C(=O)OCC)n1ncc(-c2ccc(OC)cc2)nc1=O` (stereo not shown) [Example 27, 2-diethoxysuccinyl 3-oxo 5-p-methoxyphenyl as.-triazine], the solubility in alcohols result is “Soluble”, the solubility in benzene entry is reported as “Soluble” and the solubility in water result is given as “insoluble”. Moreover, the solubility in chloroform result (chloroform) was “Soluble”.
As for `CC(=O)Cn1ncc(-c2ccc(C)cc2)nc1=O` [Example 6, 2-acetonyl 3-oxo 5-p-methylphenyl as.-triazine], the solubility in ether entry was “insoluble” and the solubility in water entry was “insoluble”. Moreover, where the note is “chloroform”, the solubility in chloroform result is “Soluble”. The “solubility in methylene chloride” value (methylene chloride) is reported as “Soluble”.
Regarding `Cc1ccc(-c2cnn(C(CCO)C(=O)O)c(=O)n2)cc1` (stereo not shown) [Example 19, 2-[3-(3-carboxy 1-propanol)] 3-oxo 5-p-methylphenyl as.-triazine], the solubility in alcohols result is recorded as “Poorly soluble”, the solubility in benzene entry is listed as “Poorly soluble”, the solubility in ether entry is listed as “insoluble” and the solubility in water entry is recorded as “insoluble”. Also, the solubility in chloroform entry (chloroform) is “Poorly soluble”.
On to `COc1ccc(-c2cnn(CC(=O)c3ccccc3)c(=O)n2)cc1` [Example 37, 2-Phenacyl 3-oxo 5-p.methoxyphenyl as triazine], for which the “solubility in acetic acid” value is given as “Soluble” and the solubility in water result is given as “insoluble”.
As for `CCOc1ccc(-c2cnn(CC(C)=O)c(=O)n2)cc1` [Example 24, 2-acetonyl 3-oxo 5-p-ethoxyphenyl as.-triazine], the “solubility in chlorinated solvents” value was “Soluble”, the solubility in ether entry is given as “insoluble” and the solubility in water entry is recorded as “insoluble”. Moreover, the “solubility in alcohols in the hot” value (in the hot) is “soluble”.
As to `Cc1ccc(-c2cnn(C3CCOC3=O)c(=O)n2)cc1` (stereo not shown) [Example 20, 2-butyrolactone 3-oxo 5-p-methylphenyl as.-triazine], the solubility in benzene result was “poorly soluble”, the solubility in ether entry is reported as “poorly soluble” and the solubility in water entry is given as “insoluble”. The solubility in chloroform entry (chloroform) is “Soluble”. In addition, under “methylene chloride”, the “solubility in methylene chloride” value is “Soluble”.
As to `CC(=O)c1ccc(N2CCN(CCCn3ncc(-c4ccc(C)cc4)nc3=O)CC2)cc1` [Example 11, 2-γ propyl p-piperazinoacetophenone 3-oxo 5-methylphenyl as.-triazine], the solubility in alcohols result is “insoluble”, the solubility in ether result is “insoluble” and the solubility in water result is listed as “insoluble”. Further, under “in the hot”, the “solubility in alcohols in the hot” value is recorded as “Soluble”. Moreover, under “chloroform, in the hot”, the “solubility in chloroform in the hot” value is recorded as “Soluble”. Also, the “solubility in methylene chloride in the hot” value (methylene chloride, in the hot) is recorded as “Soluble”.
On to `COc1ccc(-c2cnn(CC(=O)c3ccc(C)cc3)c(=O)n2)cc1` [Example 38, 2-p.methylphenacyl 3-oxo 5-p.methoxyphenyl as triazine], for which the “solubility in acetic acid” value is “Soluble”, the solubility in alcohols entry is “Insoluble” and the solubility in water entry is on record as “Insoluble”.
On to `CC(=O)Cn1ncc(-c2ccc(OC3CCOC3=O)cc2)nc1=O` (stereo not shown) [Example 3, 2-acetonyl 3-oxo 5-p-(alphaoxy γ butryolactone)phenyl as.-triazine], for which the solubility in benzene result was “Insoluble”, the solubility in ether result is reported as “Insoluble” and the solubility in water entry is given as “Insoluble”. Moreover, the solubility in chloroform result (chloroform) is on record as “Insoluble”.
On to `CCOC(=O)CCCn1ncc(-c2ccc(C)cc2)nc1=O` [Example 35, 2-N-ethylbutyrate 3-oxo 5-p-methylphenyl as.-triazine], for which the solubility in alcohols entry is “Soluble”, the solubility in benzene result is given as “Soluble” and the solubility in water result is on record as “insoluble”. In addition, the solubility in chloroform entry (chloroform) was “Soluble”.
Consider `COc1ccc(-c2cnn(C(c3ccccc3)c3ccccc3)c(=O)n2)cc1` [Example 30, 2-N-diphenylmethyl 3-oxo 5-p-methoxyphenyl as.-triazine], for which the solubility in water result is recorded as “insoluble”. Moreover, the “solubility in alcohols in the hot” value (in the hot) is “Soluble”. Under “chloroform”, the solubility in chloroform result is “insoluble”. The “solubility in methylene chloride” value (methylene chloride) is “Soluble”.
As for `COc1ccc(-c2cnn(CCN3CCN(c4cccc(C(F)(F)F)c4)CC3)c(=O)n2)cc1` [Example 16, 2-β ethyl (m-trifluoromethylphenyl) piperazine 3-oxo 5-p-methoxyphenylas.-triazine], the solubility in benzene result was “poorly soluble”, the solubility in ether result was “insoluble” and the solubility in water result is on record as “insoluble”. For the same compound, where the note is “chloroform”, the solubility in chloroform entry is given as “Soluble”. The “solubility in methylene chloride” value (methylene chloride) is listed as “Soluble”.
On to `COc1ccc(-c2cnn(CC(C)=O)c(=O)n2)c(OC)c1` [Example 25, 2-acetonyl 3-oxo 5-(2',4'-dimethoxy)phenyl as.-triazine], for which the solubility in ether entry is “insoluble” and the solubility in water entry is given as “insoluble”. Further, the solubility in chloroform result (chloroform) is recorded as “Soluble”. Further, for the setting “methylene chloride”, the “solubility in methylene chloride” value is “Soluble”.
For the compound `COc1ccc(-c2cnn(CCCC(=O)c3ccc(F)cc3)c(=O)n2)cc1` [Example 33, 2-N-(γp-fluorobutyrophenone) 3-oxo 5-p-methoxyphenyl as.-triazine], the solubility in water entry is given as “insoluble”. Where the note is “chloroform”, the solubility in chloroform result was “Soluble”. For the setting “methylene chloride”, the “solubility in methylene chloride” value is “Soluble”.
As for `COc1ccc(-c2cnn(CCN3CCN(c4cccc(Cl)c4)CC3)c(=O)n2)cc1` [Example 10, 2 β ethyl(metachlorophenyl)piperazine 3-oxo 5-p-methoxyphenyl as.-triazine], the “solubility in aqueous dilute acids in the hot” value (aqueous dilute acids, in the hot) is on record as “Soluble”. Further, the solubility in chloroform entry (chloroform) is recorded as “Poorly soluble”. The “solubility in methylene chloride” value (methylene chloride) was “Poorly soluble”.
Turning to `COc1ccc(-c2cnn(CCCCCN3CCC(O)CC3)c(=O)n2)cc1` [Example 28, N 2-[ε-pentyl (4-hydroxypiperidine)] 3-oxo 5-p-methoxyphenyl as.-triazine], the solubility in alcohols entry is listed as “Soluble” and the solubility in water entry is given as “insoluble”. Further, the solubility in chloroform result (chloroform) is on record as “Soluble”.
`Cc1ccc(C2C=NN(C(c3ccccc3)C(O)c3ccccc3)C(=O)N2)cc1` (stereo not drawn) [Example 29, N-2[α(1,2-diphenylethan 1-ol)] 3-oxo 4,5-dihydro 5-p-methylphenyl as.-triazine]: the solubility in ether result was “insoluble” and the solubility in water result is given as “insoluble”. Moreover, the “solubility in alcohols in the hot” value (in the hot) is reported as “Soluble”. Besides, for the setting “chloroform”, the solubility in chloroform result is reported as “insoluble”.
For `CC(=O)Cn1ncc(-c2ccc(O)cc2)nc1=O` [Example 2, 2-N-acetonyl 3-oxo 5-p-hydroxyphenyl as.-triazine], the solubility in benzene result is given as “Insoluble”, the solubility in ether result is listed as “Insoluble” and the solubility in water entry is “rather soluble”. Moreover, the “solubility in alcohols in the hot” value (in the hot) is “Soluble in the hot, recrystallizes in the cold”. The solubility in chloroform result (chloroform) is reported as “Insoluble”. In addition, the “solubility in dilute aqueous bases” value (dilute aqueous bases) is given as “soluble”.
As to `COc1ccc(-c2cnn(CC(=O)C(C)C)c(=O)n2)cc1` [Example 5, 2-(3'-methyl 2'-one butyl) 3-oxo 5-p-methoxyphenyl as.-triazine], the solubility in benzene entry is on record as “poorly soluble”, the solubility in ether entry was “poorly soluble” and the solubility in water entry is given as “Insoluble”. Besides, the solubility in chloroform entry (chloroform) is listed as “Soluble”. Besides, the “solubility in methylene chloride” value (methylene chloride) is on record as “Soluble”.
Regarding `Cc1ccc(-c2cnn(C(C(=O)c3ccccc3)c3ccccc3)c(=O)n2)cc1` (stereo not shown) [Example 36, 2-N-desyl 3-oxo 5-p-methylphenyl as.-triazine], the solubility in water result was “insoluble”. Moreover, the “solubility in alcohols in the hot” value (in the hot) is “Soluble”. Moreover, the solubility in chloroform result (chloroform) is on record as “Soluble”. In addition, for the setting “methylene chloride”, the “solubility in methylene chloride” value was “Soluble”.
Take `CCC(=O)Cn1ncc(-c2ccc(OC)cc2)nc1=O` [Example 41, 2-(oxo-2' butyl) 3-oxo 5-p.methoxyphenyl as triazine]: the “solubility in acetic acid” value was “Soluble”, the solubility in alcohols entry was “Insoluble” and the solubility in water result was “Insoluble”.
On to `CC(=O)Cn1ncc(-c2cccs2)nc1=O` [Example 26, 2-acetonyl 3-oxo 5-γ-thienyl as.-triazine], for which the “solubility in chlorinated solvents” value is reported as “Soluble”, the solubility in ether result is on record as “insoluble” and the solubility in water result was “insoluble”.
